Assay results: PubChem BioAssay (NCI)
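Dose response: 5 concentrations. Exposure: 48 h. Format: 96-well plates. Endpoint: linear interpolation; highest concentration if not reached. TGI denotes the concentration required for complete inhibition of growth.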

Experiments:
Assay in all cases: growth of human tumour cells (NCI), 48 h
[1] = test system: MALME-3M melanoma
[2] = test system: CCRF-CEM leukemia
[3] = test system: DU-145 prostate
[4] = test system: UACC-62 melanoma
[5] = test system: SK-MEL-28 melanoma
[6] = test system: K-562 leukemia
[7] = test system: SNB-19 CNS
[8] = test system: A549 NSCLC
[9] = test system: KM12 colon
[10] = test system: 786-0 renal
[11] = test system: UO-31 renal
[12] = test system: TK-10 renal
[13] = test system: SNB-75 CNS
[14] = test system: COLO 205 colon
[15] = test system: NCI-H522 lung
[16] = test system: SK-MEL-5 melanoma
[17] = test system: HOP-62 NSCLC
[18] = test system: MOLT-4 leukemia
[19] = test system: SF-268 CNS
[20] = test system: PC-3 prostate
[21] = test system: HCC-2998 colon
[22] = test system: NCI-H226 lung
[23] = test system: OVCAR-3 ovarian
[24] = test system: HCT-116 colon
[25] = test system: SF-539 CNS
[26] = test system: MDA-MB-435
[27] = test system: MDA-MB-231 breast
[28] = test system: IGROV1 ovarian
[29] = test system: EKVX NSCLC
[30] = test system: NCI-H460 lung
[31] = test system: OVCAR-8 ovarian
[32] = test system: U251 CNS
[33] = test system: MCF7 breast
[34] = test system: HCT-15 colon
[35] = test system: BT-549 breast
[36] = test system: ACHN renal
[37] = test system: HT29 colon
[38] = test system: MDA-N
[39] = test system: HL-60(TB) leukemia
[40] = test system: SK-MEL-2 melanoma
[41] = test system: CAKI-1 renal
[42] = test system: M14 melanoma
[43] = test system: SK-OV-3 ovarian
[44] = test system: SW-620 colon
[45] = test system: HS 578T breast
[46] = test system: RXF 393 renal
[47] = test system: NCI/ADR-RES ovarian
[48] = test system: OVCAR-5 ovarian
[49] = test system: T-47D breast
[50] = test system: UACC-257 melanoma
[51] = test system: SR leukemia
[52] = test system: HOP-92 NSCLC
[53] = test system: SN12C renal
[54] = test system: SF-295 CNS
[55] = test system: RPMI-8226 leukemia
[56] = test system: OVCAR-4 ovarian
[57] = test system: LOX IMVI melanoma
[58] = test system: NCI-H23 lung

Measured: TGI

O=C(O)c1cc2ccccc2c(N=Nc2ccc(S(=O)(=O)O)cc2)c1O
not listed: [57] | [58]
> 100 µM: all other assays above

CC(C)CC(C(N)=O)C(=O)NC(Cc1ccccc1)NC(=O)CNC(=O)C(C)NC(=O)C(N)Cc1ccc(O)cc1 (stereo not drawn)
not listed: [52]
> 100 µM: all other assays above
